Measured values as given in patent US20100021950A1, “SCREENING METHOD FOR ANTI-DIABETIC COMPOUNDS” (priority 2007, published 2010).
Like-named read-outs stand apart in the source and are kept apart here.

B1: wt EphA5: full-length EphA5 protein over-expressed in MIN6 cells from pEGFP-wtEphA5 (protein, UniProt Q60629 1-876, looked up)
chain: MRGSGPRGAGHRRTQGRGGGDDTPRVPASLAGCYSAPLKGPLWTCLLLCAALRTLLASPSNEVNLLDSRTVMGDLGWIAFPKNGWEEIGEVDENYAPIHTYQVCKVMEQNQNNWLLTSWISNEGASRIFIELKFTLRDCNSLPGGLGTCKETFNMYYFESDDENGRSIKENQYIKIDTIAADESFTELDLGDRVMKLNTEVRDVGPLSKKGFYLAFQDVGACIALVSVRVYYKKCPSVVRHLAIFPDTITGADSSQLLEVSGSCVNHSVTDDPPKMHCSAEGEWLVPIGKCMCKAGYEEKNGTCQAPSPVTNVKKGKIAKNSISLSWQEPDRPNGIILEYEIKYFEKDQETSYTIIKSKETSITAEGLKPASVYVFQIRARTAAGYGVFSRRFEFETTPVSVAASNDQSQIPIIAVSVTVGVILLAVMIGFLLSGSCCDCGCGRASSLCAVAHPSLIWRCGYSKAKQDPEEEKMHFHNGHIKLPGVRTYIDPHTYEDPNQAVHEFAKEIEASCITIERVIGAGEFGEVCSGRLKLPGKRELPVAIKTLKVGYTEKQRRDFLGEASIMGQFDHPNIIHLEGVVTKSKPVMIVTEYMENGSLDTFLKKNDGQFTVIQLVGMLRGIAAGMKYLSDMGYVHRDLAARNILINSNLVCKVSDFGLSRVLEDDPEAAYTTRGGKIPIRWTAPEAIAFRKFTSSSDVWSYGIVMWEVVSYGERPYWEMTNQDVIKAVEEGYRLPSPMDCPAALYQLMLDCWQKDRNSRPKFDEIVNMLDKLIRNPSSLKTLVNASSRVSTLLAEHGSLGSGAYRSVGEWLEAIKMGRYTEIFMENGYSSMDAVAQVTLEDLRRLGVTLVGHQKKIMSSLQEMKVQMVNGMVPV
modifications: full-length EGFP fusion
notes: full-length EphA5 protein over-expressed in MIN6 cells from pEGFP-wtEphA5

How the values were obtained:
MIN6 cells = experiment: Insulin secretion from MIN6 cells; type: cell-based, mouse; details: 25 mM glucose
Text: MIN6 cells (Miyazaki et al. (1990) Endocrinol. 127, 126) at passages 37-47 were maintained as previously described (Nikolova et al. (2006) Dev. Cell 10, 397). The cells were electroporated with pEGFP, pEGFP-wtEphA5 (Gao et al. (1998) Proc. Natl. Acad. Sci. U.S.A. 95, 5329), pEGFP-DN-EphA5 (Gao et al. (1998) Proc. Natl. Acad. Sci. U.S.A. 95, 5329), pEGFP-ephrin-A5, (Wimmer-Kleikamp et al. (2004) J. Cell Biol. 164, 661), pEGFP-wtRac1, pEGFP-DN-Rac1 (Rac1N17) (Hall (2005) Biochem. Soc. Trans. 33, 891) and pcDNA-Cx36 constructs (Ravier et al. (2005) Diabetes 54, 1798); siRNA against firefly luciferase (control siRNA), ephrin-A5 and Cx36 by using Amaxa nucleofection (Amaxa biosystems).
For insulin secretion measurements, islets or MIN6 cells were starved for 1 h in Krebs Ringer Buffer (KRB) containing 115 mM NaCl, 5 mM KCl, 1.2 mM KH2PO4, 1 mM MgSO4, 2.5 mM CaCl2, 24 mM NaHCO3, 2 mM glucose, 25 mM HEPES (pH 7.4), and 0.1% bovine serum albumin. After starvation, medium was exchanged for the same buffer +/− Fc fusion proteins to measure basal secretion, or for KRB containing 25 mM glucose +/− Fc fusion proteins to measure glucose-stimulated insulin secretion, during 1 h incubation. When Fc fusion proteins were used, islets were continuously shaken (300-500 rpm) to facilitate access of Fc fusion proteins to islet β-cells. The amount of secreted insulin was measured in the medium, and islets or MIN6 cells were subsequently dissolved in RIPA buffer to measure insulin content and total protein content. Secreted insulin was normalized to total insulin content and total protein content, and presented as % of basal control insulin secretion. In all histograms, the first column represents the basal control (=100%), except in FIG. 3C, in which the third column is taken as basal control. Secreted insulin and insulin content were measured by using ultra-sensitive rat insulin ELISA kit (Crystal Chem inc.). The total protein content was measured using BCA kit (Molecular Probes). […]

mouse pancreatic islets [1] = details: 10 μM, Gogg et al. (2001); cited from earlier work
mouse pancreatic islets [2] = experiment: Insulin secretion from mouse pancreatic islets; type: cell-based; details: 25 mM glucose, 1 h; Fc fusion proteins 4 μg/ml, peroxovanadate 10 μM; compared with Fc
Text: Pancreatic islets were isolated from NMRI mice for all experiments, except for the experiments with male ephrin-A5-/- and control littermates, which were C57BL/6 (Knoll et al. (2001) Development 128, 895). All mice used were 8-10 weeks old. Human pancreatic islets were isolated from a perfused human pancreas by using a protocol approved by the Ethical Research Committee of the Technical University Medical School Dresden and according to the law of the State of Saxony. Mouse and human islets were cultured overnight in Dulbecco's modified Eagle's medium (DMEM) containing 11 mM glucose (Gibco), supplemented with 10% heat inactivated fetal calf serum (FCS), 100U/ml Penicillin, 100 μg/ml Streptomycin, 1.5 g/L NaHCO3 in a humidified atmosphere (5% CO2, 37° C.). […]
For insulin secretion measurements, islets or MIN6 cells were starved for 1 h in Krebs Ringer Buffer (KRB) containing 115 mM NaCl, 5 mM KCl, 1.2 mM KH2PO4, 1 mM MgSO4, 2.5 mM CaCl2, 24 mM NaHCO3, 2 mM glucose, 25 mM HEPES (pH 7.4), and 0.1% bovine serum albumin. […] The amount of secreted insulin was measured in the medium, and islets or MIN6 cells were subsequently dissolved in RIPA buffer to measure insulin content and total protein content. […] Secreted insulin and insulin content were measured by using ultra-sensitive rat insulin ELISA kit (Crystal Chem inc.). The total protein content was measured using BCA kit (Molecular Probes). […]

EphA5 = EphA5 immunoprecipitation and phosphotyrosine Western blot, MIN6 cells; type: cell-based, mouse; details: 10 μM, 25 mM glucose, 5 min
Description: MIN6 cells and pancreatic islets were lysed in RIPA buffer, supplemented with protease and phosphatase inhibitors. 1 μg total protein, isolated from MIN6 cell lysates or 500 ng total protein, isolated from islet lysates, were used for immunoprecipitation with 1:1,000-diluted rabbit-anti-EphA5 (Santa Cruz) and protein-A beads (Amersham). For immunoprecipitation/pull-down of Rac1-GTP with Pak1-PBD (P21-activated kinase-1-P21 Binding Domain) and Westem blots, a Rac1 Activation StressXPress Kit (Biomol) was used. The immunoprecipitates were separated on 4-12% gradient SDS-polyacrylamide gels (Invitrogen) and transferred onto a PVDF membrane (Amersham). For western blots, 1:500-diluted rabbit-anti-EphA5 antibody (Santa Cruz), 1:1,000-diluted mouse-anti-PY antibody (Biomol) and 1:200-diluted rabbit-anti-Rac1 antibody (Santa Cruz) were used. 1:10,000-diluted HRP-conjugated donkey-anti-rabbit antibody (Dianova) and 1:5,000-diluted HRP-conjugated goat-anti-mouse antibody (Dianova) were used as secondary antibodies. Western blots were developed using an ECL system (Amersham). The intensities of EphA5 and Rac1 bands were normalized to the intensities of total EphA5 and Rac1, respectively, and presented as % of basal control. The intensities of the bands were quantified by using TotalLab software (Stratagene).

Row | Molecule | glucose-stimulated insulin secretion (MIN6 cells; confluent MIN6 cells, 1 h, Fc fusion proteins 4 μg/ml, peroxovanadate 10 μM, compared with Fc) | glucose-stimulated insulin secretion (mouse pancreatic islets [1]) | glucose-stimulated insulin secretion (mouse pancreatic islets [2]) | glucose-induced EphA5 dephosphorylation (EphA5) | EphA5 phosphorylation levels at stimulatory conditions (EphA5; relative to basal levels) | glucose-stimulated insulin secretion (MIN6 cells; over-expression in confluent MIN6 cell monolayers, vs empty vector) | glucose-stimulated insulin secretion in PV-treated MIN6 cells (MIN6 cells; over-expression, 10 μM peroxovanadate, vs empty vector/PV)
1 | peroxovanadate | reduced | strongly reduced | reduced | effectively prevented | increased |  | 
2 | B1 |  |  |  |  |  | decreased | reduced
